Like-named read-outs stand apart in the source and are kept apart here.
Experiments:
[1] = biological target: T1, EcSerRS (Escherichia coli, UniProt P0A8L1); experiment: continuous coupled spectrophotometric assay of adenylate formation; assay type: biochemical
[2] = biological target: T2, HsSerRS (Homo sapiens, UniProt P49591); assay type: biochemical
[3] = biological target: T3, SaSerRS (Staphylococcus aureus, UniProt P95689); experiment: continuous coupled spectrophotometric assay of adenylate formation; assay type: biochemical
T3 sequence (P95689 whole entry): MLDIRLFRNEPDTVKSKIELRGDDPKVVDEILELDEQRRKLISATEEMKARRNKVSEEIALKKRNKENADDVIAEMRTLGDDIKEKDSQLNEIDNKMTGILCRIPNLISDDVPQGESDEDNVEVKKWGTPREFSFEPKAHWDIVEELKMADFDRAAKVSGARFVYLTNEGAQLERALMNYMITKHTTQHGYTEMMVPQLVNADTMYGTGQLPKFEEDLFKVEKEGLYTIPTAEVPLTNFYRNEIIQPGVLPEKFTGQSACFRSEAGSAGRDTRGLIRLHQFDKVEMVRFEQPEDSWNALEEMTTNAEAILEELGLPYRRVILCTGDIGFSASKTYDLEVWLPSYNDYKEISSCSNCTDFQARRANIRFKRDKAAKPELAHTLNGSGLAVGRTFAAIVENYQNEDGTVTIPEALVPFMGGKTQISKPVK

[4] = biological target: T3, SaSerRS; experiment: biochemical
[5] = biological target: T1, EcSerRS; experiment: biochemical
[6] = biological target: T2, HsSerRS; experiment: biochemical
[7] = pH 7.6, 37 °C, 10 mM MgCl2, 10% DMSO

T2 sequence (P49591 whole entry, looked up): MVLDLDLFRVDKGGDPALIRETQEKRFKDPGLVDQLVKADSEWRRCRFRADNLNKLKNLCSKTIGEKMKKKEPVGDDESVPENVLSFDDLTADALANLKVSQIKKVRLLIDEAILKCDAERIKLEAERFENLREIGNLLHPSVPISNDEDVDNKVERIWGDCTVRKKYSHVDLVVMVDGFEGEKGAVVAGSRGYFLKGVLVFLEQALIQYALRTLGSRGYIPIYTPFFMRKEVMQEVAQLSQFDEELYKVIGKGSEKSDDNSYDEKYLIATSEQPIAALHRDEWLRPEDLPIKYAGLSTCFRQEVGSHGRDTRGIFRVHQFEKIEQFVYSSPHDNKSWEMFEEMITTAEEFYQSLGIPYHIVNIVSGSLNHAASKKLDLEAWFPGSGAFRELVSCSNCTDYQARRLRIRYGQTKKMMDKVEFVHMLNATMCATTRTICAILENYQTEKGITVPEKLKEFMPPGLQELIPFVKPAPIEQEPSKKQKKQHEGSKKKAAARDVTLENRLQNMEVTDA
T1 sequence (P0A8L1 whole entry): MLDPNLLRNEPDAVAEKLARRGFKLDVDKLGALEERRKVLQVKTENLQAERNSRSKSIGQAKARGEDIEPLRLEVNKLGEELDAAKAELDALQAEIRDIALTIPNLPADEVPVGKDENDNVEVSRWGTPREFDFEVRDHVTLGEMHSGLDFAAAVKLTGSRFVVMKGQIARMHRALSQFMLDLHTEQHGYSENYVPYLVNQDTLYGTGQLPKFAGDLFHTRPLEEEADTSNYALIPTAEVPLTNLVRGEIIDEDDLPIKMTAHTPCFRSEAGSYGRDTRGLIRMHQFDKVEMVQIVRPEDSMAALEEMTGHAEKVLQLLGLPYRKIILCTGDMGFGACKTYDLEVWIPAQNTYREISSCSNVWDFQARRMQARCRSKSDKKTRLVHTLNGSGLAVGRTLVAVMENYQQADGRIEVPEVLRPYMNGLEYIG

| SMILES | IC50 [1, 7] | IC50 [3, 7] | further results |
| --- | --- | --- | --- |
| Nc1ncnc2c1ncn2[C@@H]1O[C@H](COS(=O)(=O)NC(=O)[C@@H](N)CO)[C@@H](O)[C@H]1O [compound 1, SerSA] | 0.21 ± 0.03 µM |  | IC50 [2]: 2170 ± 210 nM; IC50 ([3]; pH 7.6, 37 °C, 10 mM MgCl2, 10% DMSO, error as printed is larger than the value): 0.23 ± 0.49 µM |
| Nc1nc(Cl)nc2c1ncn2[C@@H]1O[C@H](COS(=O)(=O)NC(=O)[C@@H](N)CO)[C@@H](O)[C@H]1O [compound 2] | 0.45 ± 0.05 µM | 0.26 ± 0.03 µM |  |
| Nc1nc(I)nc2c1ncn2[C@@H]1O[C@H](COS(=O)(=O)NC(=O)[C@@H](N)CO)[C@@H](O)[C@H]1O [compound 3] | 1.36 ± 0.12 µM | 0.38 ± 0.04 µM |  |
| Nc1nc(-c2ccccc2)nc2c1ncn2[C@@H]1O[C@H](COS(=O)(=O)NC(=O)[C@@H](N)CO)[C@@H](O)[C@H]1O [compound 4] | 17.7 ± 1.42 µM | 52.7 ± 4.81 µM |  |
| C/C=C/c1nc(N)c2ncn([C@@H]3O[C@H](COS(=O)(=O)NC(=O)[C@@H](N)CO)[C@@H](O)[C@H]3O)c2n1 [compound 5] | 9.38 ± 0.7 µM | 3.46 ± 0.47 µM |  |
| Nc1nc(-c2ccco2)nc2c1ncn2[C@@H]1O[C@H](COS(=O)(=O)NC(=O)[C@@H](N)CO)[C@@H](O)[C@H]1O [compound 6] | 36.2 ± 2.41 µM | 32.4 ± 3.56 µM |  |
| Nc1nc(-c2ccsc2)nc2c1ncn2[C@@H]1O[C@H](COS(=O)(=O)NC(=O)[C@@H](N)CO)[C@@H](O)[C@H]1O [compound 7] | 1.44 ± 0.09 µM | 1.24 ± 0.12 µM |  |
| Nc1nc(-c2cccnc2)nc2c1ncn2[C@@H]1O[C@H](COS(=O)(=O)NC(=O)[C@@H](N)CO)[C@@H](O)[C@H]1O [compound 8] | 6.65 ± 0.64 µM | 6.34 ± 0.71 µM |  |
| C[C@H](N)C(=O)NS(=O)(=O)OC[C@H]1O[C@@H](n2cnc3c(N)ncnc32)[C@H](O)[C@@H]1O [compound 9, AlaSA] |  |  | IC50 [4]: > 1 mM; IC50 [5]: > 1 mM; IC50 [6]: > 1 mM |
| C[C@@H](O)[C@H](N)C(=O)NS(=O)(=O)OC[C@H]1O[C@@H](n2cnc3c(N)ncnc32)[C@H](O)[C@@H]1O [compound 10, ThrSA] |  |  | IC50 [1]: 285 µM; IC50 [3]: 231 µM; IC50 [6]: > 1 mM |
